Data: patent publication US7897627B2, “Heteroaryl derivatives as orexin receptor antagonists” (Hoffmann-La Roche Inc., priority 2007, dated 2011)

What follows are compounds tested against T1, human orexin-2 (hOX2) receptor (Homo sapiens, UniProt O43614) (assay: Intracellular Ca2+ mobilization assay (FLIPR), CHO(dHFr-) cells expressing hOX2, orexin-A as agonist). Conditions: antagonist Kb=IC50/(1+[A]/EC50); orexin-A at EC80; CHO(dHFr-)-OX2R cells; antagonist applied 25 min before agonist.
T1 construct: expressed in transfected cells
T1 sequence (O43614 1-444): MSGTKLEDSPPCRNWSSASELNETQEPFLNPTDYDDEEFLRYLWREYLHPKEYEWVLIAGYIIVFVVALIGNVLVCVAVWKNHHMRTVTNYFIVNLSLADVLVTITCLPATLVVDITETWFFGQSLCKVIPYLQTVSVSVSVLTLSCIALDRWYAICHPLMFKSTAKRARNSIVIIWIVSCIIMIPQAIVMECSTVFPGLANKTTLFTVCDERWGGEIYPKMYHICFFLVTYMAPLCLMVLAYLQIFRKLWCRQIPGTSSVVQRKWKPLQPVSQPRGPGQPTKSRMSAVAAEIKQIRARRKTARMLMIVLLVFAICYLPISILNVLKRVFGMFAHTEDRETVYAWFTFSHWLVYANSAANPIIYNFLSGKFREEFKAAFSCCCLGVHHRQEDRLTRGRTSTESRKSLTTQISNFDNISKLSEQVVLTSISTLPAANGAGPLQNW
Format: cell-based
In short: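 Cells loaded with 4 μM Fluo-4 AM (1 h, 37° C) in HBSS/20 mM HEPES/2.5 mM probenecid; antagonists (11 concentrations, 0.0001-10 μM) added 25 min at 37° C before orexin-A at its daily-determined EC80. Peak fluorescence minus basal fitted to Hill equation for IC50; Kb=IC50/(1+[A]/EC50).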
`O=C(c1ccccc1OC(F)(F)C(F)F)N1CC[C@@H](Nc2cnc3cc(F)c(F)cc3n2)C1` [Example 167, [(R)-3-(6,7-Difluoro-quinoxalin-2-ylamino)-pyrrolidin-1-yl]-[2-(1,1,2,2-tetrafluoro-ethoxy)-phenyl]-methanone] was tested, and the Kb was 0.001 µM.
Compound `Cc1nc(C(=O)N2CC[C@@H](Nc3nc4ccc(F)c(F)c4o3)C2)c(-c2ccccc2)s1` [Example 155, [(R)-3-(6,7-Difluoro-benzooxazol-2-ylamino)-pyrrolidin-1-yl]-(2-methyl-5-phenyl-thiazol-4-yl)-methanone] has a Kb of 0.0304 µM.
Work on `Cc1ccc(C(F)(F)F)c(C(=O)N2CC[C@@H](Nc3ccnc(-c4ccccc4)n3)C2)c1` [Example 200, (5-Methyl-2-trifluoromethyl-phenyl)-[(R)-3-(2-phenyl-pyrimidin-4-ylamino)-pyrrolidin-1-yl]-methanone] yielded a Kb of 0.0073 µM.
Work on `Cc1nc(C(=O)N2CC[C@@H](Nc3cnc4cc(Cl)ccc4n3)C2)c(-c2ccccc2)s1` [Example 181, [(R)-3-(6-Chloro-quinoxalin-2-ylamino)-pyrrolidin-1-yl]-(2-methyl-5-phenyl-thiazol-4-yl)-methanone] yielded a Kb of 0.028 µM.
`CCOc1cccc(OCC)c1C(=O)N1CC[C@@H](Nc2nc3ccc(Cl)cc3o2)C1` [Example 73, [(R)-3-(6-Chloro-benzooxazol-2-ylamino)-pyrrolidin-1-yl]-(2,6-diethoxy-phenyl)-methanone] gave a Kb of 0.0012 µM.
`Cc1ccc(C(F)(F)F)c(C(=O)N2CC[C@@H](Nc3cnc4cc(Cl)ccc4n3)C2)c1` [Example 176, [(R)-3-(6-Chloro-quinoxalin-2-ylamino)-pyrrolidin-1-yl]-(5-methyl-2-trifluoromethyl-phenyl)-methanone] showed a Kb of 0.014 µM.
Compound `O=C(c1ccccc1OC(F)(F)C(F)F)N1CC[C@@H](Nc2cnc3cc(Cl)ccc3n2)C1` [Example 175, [(R)-3-(6-Chloro-quinoxalin-2-ylamino)-pyrrolidin-1-yl]-[2-(1,1,2,2-tetrafluoro-ethoxy)-phenyl]-methanone] has a Kb of 0.0187 µM.
Work on `O=C(c1c(Cl)cccc1Cl)N1CC[C@@H](Nc2nc3ccc(Cl)cc3o2)C1` [Example 33, [(R)-3-(6-Chloro-benzooxazol-2-ylamino)-pyrrolidin-1-yl]-(2,6-dichloro-phenyl)-methanone] yielded a Kb of 0.0354 µM.
`COc1cccc(OC)c1C(=O)N1CC[C@@H](Nc2cnc3ccccc3n2)C1` [Example 24, (2,6-Dimethoxy-phenyl)-[(R)-3-(quinoxalin-2-ylamino)-pyrrolidin-1-yl]-methanone] gave a Kb of 0.0415 µM.
For `O=C(c1ccccc1-n1cccc1)N1CC[C@@H](Nc2nc3ccc(Cl)cc3o2)C1` [Example 28, [(R)-3-(6-Chloro-benzooxazol-2-ylamino)-pyrrolidin-1-yl]-(2-pyrrol-1-yl-phenyl)-methanone], the Kb was 0.0096 µM.
